In series [1] the test system is mice. Briefly: Acute toxicity: administration amount causing acute death to mice. Type of series: in vivo. Conditions: mouse, in vivo, ip. How it is done:
A compound of the present invention was dissolved in a physiological saline solution in various concentrations. Each of the resulting solutions was intraperitoneally administered to one of CDF1 -SLC female mice (one group: two to three mice) in an amount of 0.1 ml per 10 g of body weight. The highest concentration of present compound in solution was 400 mg/10 ml/kg, and starting from this solution of highest concentration, solutions of lower concentrations were prepared each time at a common ratio of 2. The administration amount of present compound with the lowest concentration solution with which at least one mouse died was taken as an administration amount of acute toxicity.
(§1) In Tables and 5, a control compound is included. This compound is such that in the general formula [I], X is [drawing 59] R is --CH2 OH and both of R1 and R2 are --H.

The test system of series [2] is antibody formation (anti-SRBC plaque-forming cells). The experiment in a line: Inhibitory activity against antibody formation (anti-SRBC plaque-forming cells in spleen). Type of series: in vivo, mouse (CDF1-SLC female). Conditions: once a day for three consecutive days, minus shows an increase of antibody formation. On the procedure:
(b) Inhibitory activity against antibody formation
Test groups and a control group of CDF1 -SLC female mice (each group: five mice) were intravenously sensitized with 1×10^8 /0.2 ml of sheep red blood cells (SRBC). A compound of the present invention was dissolved in a physiological saline solution in various concentrations. Each of the resulting solutions was administered to one of the test groups once a day for three consecutive days from the next day of the sensitization, in an amount of 0.1 ml/10 g (body weight)/day. The physiological saline solution was administered to the control group.
In the fourth day from the sensitization, all the mice were killed and the number of anti-SRBC plaque-forming cells (PFC) in the spleen cells of each mouse was measured. From this number, the PFC number per 10^6 of spleen cells was calculated. The effect of the present compound was expressed as an inhibition percentage (%) of PFC number of test group as compared with control group. [formula]
as §1

The subject of series [3] is mouse leukemia L1210. Briefly: Life prolongation effect to mouse leukemia L1210. The conditions noted are these: once a day for nine consecutive days, 125 or more is effective, read-out: T/C × 100 (life prolongation percentage); for response vs control in vivo at 0.39 mg/kg: 0.39 mg/kg/day; for response vs control in vivo at 0.78 mg/kg: 0.78 mg/kg/day; for response vs control in vivo at 1.56 mg/kg: 1.56 mg/kg/day; for response vs control in vivo at 3.13 mg/kg: 3.13 mg/kg/day; for response vs control in vivo at 6.25 mg/kg: 6.25 mg/kg/day; for response vs control in vivo at 12.5 mg/kg: 12.50 mg/kg/day; for response vs control in vivo at 25 mg/kg: 25.00 mg/kg/day; for response vs control in vivo at 50 mg/kg: 50.00 mg/kg/day. It counts as in vivo, mouse (CDF1-SLC female). On the procedure: 3. Life prolongation effect of present compound to mouse leukemia cells L1210 and its toxicity
1×10^5 /0.2 ml/mouse of mouse leukemia cells L1210 were intraperitoneally transplanted to test groups and a control group of CDF1 -SLC female mice (each group: four mice). A compound of the present invention was dissolved in a physiological saline solution in various concentrations and each of the resulting solutions was administered to one of the test groups once a day for nine consecutive days from the next day of the transplantation, in an amount of 0.1 ml/10 g (body weight)/day. The physiological saline solution was administered to the control group.
All the mice of the test groups and the control group were observed from the next day of the L1210 transplantation to examine their days of survival, and the average days of survival (T) of each test group and the average days of survival (C) of the control group were calculated. The life prolongation percentage of the present compound was expressed as (T/C)×100.
It is believed that a (T/C)×100 of 125 or more is effective.
as §1

Setting [4] is: Administration amount 1.56 mg/kg.
Where [5] appears, read: Administration amount 6.25 mg/kg.

Structures are written as SMILES. Structures can show the parent of a compound that is named as a salt.

On to `N=C(N)Nc1ccc(CCCC(=O)N[C@@H](CO)C(=O)NCCCCNCCCNC(=O)[C@H](N)c2ccccc2)cc1` [Compound No. 4, trihydrochloride], for which, in series [1], the “Administration amount causing acute death to mice” value was 100 mg/kg. In series [2] (setting [4]), the “Inhibitory percentage (antibody formation, PFC number vs control group)” value (“Inhibitory percentage” for short) was found to be 68%. In addition, the “Inhibitory percentage” value in series [2] (setting [5]) is on record as 95%. Moreover, in series [3], the response vs control in vivo at 0.39 mg/kg was determined as 125%, the response vs control in vivo at 0.78 mg/kg was found to be 149%, the response vs control in vivo at 1.56 mg/kg amounted to 195% and the response vs control in vivo at 3.13 mg/kg was determined as 228%. In series [3], the response vs control in vivo at 6.25 mg/kg was determined as 237%, the response vs control in vivo at 12.5 mg/kg came to 243%, the response vs control in vivo at 25 mg/kg was determined as 247% and the response vs control in vivo at 50 mg/kg turned out to be 197%.
As for `CC(C)C[C@H](NC(=O)[C@@H](N)CC(C)C)C(=O)NCCCNCCCCNC(=O)[C@H](CO)NC(=O)CCCc1ccc(NC(=N)N)cc1` [Compound No. 13, 10-{N-[4-(4-GP)butanoyl]-L-Ser}-1-L-Leu-L-Leu-1,5,10-TAD trihydrochloride], in series [1], the “Administration amount causing acute death to mice” value is 100 mg/kg. Besides, the “Inhibitory percentage” value in series [2] (setting [4]) was 53%. The “Inhibitory percentage” value in series [2] (setting [5]) amounted to 88%. Further, in series [3], the response vs control in vivo at 0.39 mg/kg was determined as 132%, the response vs control in vivo at 0.78 mg/kg was 149%, the response vs control in vivo at 1.56 mg/kg was found to be 201% and the response vs control in vivo at 3.13 mg/kg was 283%. Also, in series [3], the response vs control in vivo at 6.25 mg/kg stood at 247%, the response vs control in vivo at 12.5 mg/kg worked out at 257%, the response vs control in vivo at 25 mg/kg amounted to 274% and the response vs control in vivo at 50 mg/kg is 303%.

Values taken from US4956504A, “Novel spergualin-related compounds and process for producing the same” (Zaidan Hojin Biseibutsu Kagaku Kenkyu Kai, priority 1986, dated 1990).
